Row | melting point [°C] | Structure (SMILES)
1 | 193 to 195 | Cc1[nH]c2ccc(Cl)cc2c1C(=O)O
2 | 204 to 206 | CCCc1noc2nc(-c3ccco3)cc(C(=O)O)c12
3 | 127 to 129 | Cn1nc(C(F)(F)F)c(C(=O)O)c1C(F)(F)F
4 | 173 to 175 | O=C1CC2(Cc3ccccc3C2)C(=O)N1
5 | 81 to 83 | CCOC(=O)c1cc(C)nc2cc(C)nn12
6 | 126 to 128 | CSc1ccc(C(=O)O)o1
7 | 208 to 210 | Cc1nc(NC2CC2)sc1C(=O)O
8 | 53 to 55 | CCCNC(=O)CC#N
9 | 36 to 38 | CC(C)(C)CCCC(=O)O
10 | 47 to 49 | CC(C(=O)O)c1ccccc1F (stereo not drawn)
11 | 139 to 142 | CC(=O)c1ccc(S(=O)(=O)N2CCCCC2)cc1
12 | 82 to 84 | COc1ccc(NCCC(=O)O)cc1
13 | 149 to 151 | CC1C(=O)NCCN1C(=O)c1ccc(Cl)s1 (stereo not drawn)
14 | 274 to 276 | CN1CCN(C(=O)c2ccccc2C(=O)O)CC1
15 | 217 to 219 | COc1ccc(C(=O)O)cc1S(=O)(=O)Cc1cc(C)no1
16 | 117 to 119 | Cc1cccc(C(=O)NC(C)C(=O)O)c1 (stereo not drawn)
17 | 132 to 134 | CCOC(=O)/C(C#N)=C/Nc1cc(Cl)ccc1OC
18 | 93 to 95 | O=C(O)CCCNC(=O)c1ccc(F)cc1
19 | 137 to 139 | CC1CCC(C(C)C)C(OC(=O)CSc2ccccc2C(=O)O)C1 (stereo not drawn)
20 | 89 to 91 | CCCC(C#N)NC(=O)c1ccccc1 (stereo not drawn)
21 | 99 to 101 | CC(=O)NCCC(N)=S
22 | 150 to 152 | Cc1[nH]nc(C(=O)O)c1S(=O)(=O)Cl

Row | melting point [°C] | Structure (SMILES)
23 | 134 to 136 | Nc1cccc(NC(=O)c2cccs2)c1
24 | 119 to 121 | CC1CCc2c(sc3ncnc(Cl)c23)C1 (stereo not drawn)
25 | 208 to 210 | Cc1c(Cl)ccc(C(=O)O)c1N
26 | 119 to 121 | O=C(O)c1ccccc1OCc1ccccc1Cl
27 | 197 to 199 | O=C(O)CCc1ccc(-c2ccccc2)[nH]1
28 | 117 to 119 | CCC(C)C(NC(=O)c1ccccc1)C(=O)O (stereo not drawn)
29 | 137 to 139 | O=C(O)CCC(Cc1ccc(Cl)cc1)C(=O)O (stereo not drawn)
30 | 250 to 252 | O=C(O)c1cnc2c(c1)c(C1CC1)nn2-c1ccccc1
31 | 239 to 241 | CC(=O)Nc1ccc(C(N)=S)cc1
32 | 199 to 201 | Cc1ccncc1C(=O)O
33 | 259 to 261 | O=C(O)c1ccc(-n2cccc2)nc1
34 | 297 to 299 | O=C(O)c1ccc(NC(=O)c2ccccc2)cc1
35 | 178 to 180 | COc1ccc(C2C(C(=O)O)CCC(=O)N2c2ccc(OC)cc2)cc1 (stereo not drawn)
36 | 163 to 165 | CC(C)(C)OC(=O)N1CC2(CNC(=O)C2)C1
37 | 185 to 187 | N#Cc1ccc(C(=O)NNC(=O)CCl)cc1
38 | 53 to 55 | O=C(O)CCCCOc1ccc(Oc2ccccc2)cc1
39 | 173 to 175 | NC(=O)CC(NS(=O)(=O)c1cccc(F)c1)C(=O)O (stereo not drawn)
40 | 233 to 235 | O=C(O)C1=Cc2cccc(O)c2OC1
41 | 88 to 90 | CC(=O)CCc1ccc(O)c(F)c1
42 | 125 to 127 | CC(C)n1ncc(C(=O)O)c1C(F)(F)F
43 | 67 to 69 | C=C(CC(=O)OC)C(=O)O
44 | 147 to 149 | O=C(O)c1cc(S(=O)(=O)Cl)c(Br)cc1F

Row | melting point [°C] | Structure (SMILES)
45 | 206 to 208 | Nc1ccc(C(=O)O)nc1Br
46 | 129 to 131 | O=C(O)c1cccn(Cc2ccccc2)c1=O
47 | 204 to 206 | CC(C)(C)c1ncc(C(=O)O)s1
48 | 132 to 134 | COc1cc(CCC(=O)O)ccc1Cl
49 | 168 to 170 | CC(C)NS(=O)(=O)c1cc(C(=O)O)ccc1F
50 | 68 to 70 | CC(C)C(=O)NC(C)c1ccc(S(=O)(=O)Cl)s1 (stereo not drawn)
51 | 117 to 119 | OC1CCC(c2ccccc2)CC1 (stereo not drawn)
52 | 204 to 206 | CC(Nc1ccc(C(=O)O)cc1[N+](=O)[O-])c1ccccn1 (stereo not drawn)
53 | 250 to 252 | O=C1NC(=O)C2(CCC(c3ccccc3)CC2)N1 (stereo not drawn)
54 | 75 to 77 | Cc1cccc(-n2c(C)cc(/C=C(\C#N)C(=O)O)c2C)c1
55 | 173 to 175 | CN1C(=O)c2ccc(C(=O)O)cc2C1=O
56 | 29 to 31 | O=C(O)C1CC2(CCCC2)C1
57 | 84 to 86 | COC(=O)c1cccc(N)c1O
58 | 69 to 71 | OCc1ccc2c(c1)CCC2
59 | 169 to 171 | Cc1nc(C(C)C)sc1C(=O)O
60 | 209 to 211 | COc1ccc(NS(=O)(=O)c2cc(C(=O)O)ccc2F)cc1
61 | 156 to 160 | O=C(O)C1CCCN(S(=O)(=O)c2ccc(F)cc2)C1 (stereo not drawn)
62 | 62 to 64 | O=C(O)CCn1cccc1
63 | 152 to 154 | COc1c(Cl)cc(C(=O)O)cc1Cl
64 | 241 to 243 | CC(=O)NC(Cc1c[nH]cn1)C(N)=O (stereo not drawn)
65 | 88 to 90 | CC1(C)CCC(=CC(=O)O)CC1
66 | 180 to 182 | CCCC(=O)Nc1c(Cl)cc(Cl)cc1C(=O)O

Row | melting point [°C] | Structure (SMILES)
67 | 60 to 62 | O=C(O)C1CCSC1 (stereo not drawn)
68 | 183 to 185 | O=C(O)Cn1cc(C2CC2)nn1
69 | 118 to 120 | O=C(O)C1(O)CCSCC1
70 | 136 to 138 | CC(CC(=O)O)(CC(=O)O)c1ccccc1
71 | 39 to 41 | COc1ccc(CCC2CCCCN2)cc1OC (stereo not drawn)
72 | 130 to 132 | CN(C)S(=O)(=O)CC(=O)O
73 | 128 to 130 | N#Cc1ccc(C(=O)CC(=O)C(F)(F)F)cc1
74 | 225 to 227 | O=C(O)c1ccccc1NS(=O)(=O)c1ccc(Br)cc1
75 | 122 to 124 | CC(NC(=O)Oc1ccccc1)C(=O)O (stereo not drawn)
76 | 89 to 91 | CC(Cl)C(=O)NC(C)c1ccccc1 (stereo not drawn)
77 | 181 to 183 | Cc1ccc(C(N)=O)c(O)c1
78 | 69 to 71 | O=C(O)C1(OCc2ccccc2)CCOCC1
79 | 163 to 165 | CC1=CC(=O)N(c2ccccc2C(=O)O)C1=O
80 | 181 to 183 | O=Cc1sc(N2CCOCC2)nc1-c1ccccc1
81 | 149 to 151 | CC(=O)N(CCc1ccccc1)CC(=O)O
82 | 181 to 185 | CC(C)NC(=O)CSc1ccccc1C(=O)O
83 | 77 to 79 | CN(C)Cc1c(O)ccc2c1CCCC2
84 | 158 to 160 | O=C(O)CCCNc1ccc([N+](=O)[O-])cc1
85 | 112 to 116 | NC(=S)CC(=O)NCc1ccccc1

The next lines start with the compound.

Row | Structure (SMILES) | melting point [°C]
86 | CCCCNc1c(N)n(Cc2ccccc2)c(=O)[nH]c1=O | 117 to 119
87 | COC(=O)c1c[nH]c2ncccc12 | 208 to 210
88 | Nc1cccnn1 | 169 to 171
89 | O=[N+]([O-])c1ccc(Oc2ccccc2Br)c(Cl)c1 | 86 to 88
90 | O=C(CCl)c1ccc(I)cc1 | 127 to 129
91 | O=c1[nH]c(CCl)nc2cc(-c3ccc(Cl)cc3)sc12 | 217 to 219
92 | COc1ccc2[nH]nc(N)c2c1 | 159 to 161
93 | CN(C)S(=O)(=O)c1ccc(NC(=O)CCCl)cc1 | 159 to 161
94 | CCCS(=O)(=O)Nc1cccc(O)c1 | 101 to 103
95 | Cc1ccc(-c2nn(Cc3ccccc3)cc2C(=O)O)cc1 | 157 to 159
96 | O=C1OCCc2cc3c(=O)[nH]c(=O)[nH]c3nc21 | 380 to 382
97 | COC(=O)COc1ccc(N)c2ccccc12 | 83 to 85
98 | CN(C)S(=O)(=O)c1ccc2c(c1)CCN2 | 111 to 113
99 | COc1ccc(C(CN)c2c[nH]c3ccccc23)cc1 (stereo not drawn) | 127 to 129
100 | COCc1cc(O)ncn1 | 159 to 161
101 | Nc1cc(Cl)ccc1C(=O)Nc1ccc(Cl)cn1 | 157 to 159
102 | Cc1ccccc1NC1=NC(C)(C)CS1 | 159 to 161
103 | Cc1c(Br)cccc1CO | 89 to 91
104 | Cc1cc(C)n(Cc2cccc(C(N)=NO)c2)n1 | 137 to 139
105 | NNc1ccc(S(=O)(=O)N2CCOCC2)cn1 | 179 to 181

Row | Structure (SMILES) | melting point [°C]
106 | CCc1nn(C)c(Cl)c1C=O | 38 to 40
107 | COC(=O)c1ccc(CS(N)(=O)=O)cc1 | 138 to 140
108 | OCCc1cc2cc(Br)ccc2o1 | 67 to 69
109 | CC(C)NS(=O)(=O)c1ccc(NN)nc1 | 141 to 143
110 | Nc1cnccc1-n1ccnc1 | 134 to 136
111 | CC(C)(C)OC(=O)NCCN=C=O | 102 to 104
112 | Cc1ccc(S(=O)(=O)c2ccc(NN)cc2)cc1 | 173 to 175
113 | Cn1nnnc1SCC(=O)O | 108 to 110
114 | O=C1NC(=O)C2(Cc3ccccc3C2)N1 | 264 to 266
115 | Cc1ccc(S(N)(=O)=O)c(F)c1 | 138 to 140
116 | O=S(=O)(c1ccccc1)n1c(I)cc2cccnc21 | 109 to 111
117 | CC(C)c1nn(-c2ccccc2)cc1C=O | 59 to 61
118 | OC(c1ccncc1)c1ccc(F)cc1 (stereo not drawn) | 136 to 138
119 | c1ccc2c(c1)CC(n1ccnc1)CN2 (stereo not drawn) | 110 to 112
120 | Nc1cc(Cl)cc2[nH]cnc12 | 89 to 91
121 | Cc1c(C(=O)O)cnn1C(C)C | 142 to 144
122 | CC(C)Oc1ccc(S(=O)(=O)N2CCOCC2)cc1N | 149 to 151
123 | NC(=O)NC(CC(=O)O)c1cccc(Oc2ccccc2)c1 (stereo not drawn) | 122 to 124
124 | CC1NC(=O)c2ccccc2NC1=O (stereo not drawn) | 337 to 339
125 | CCc1cccc2c(C3=CCNCC3)c[nH]c12 | 190 to 192

Row | Structure (SMILES) | melting point [°C]
126 | Cc1cccc(/C=C/c2cc(C(=O)O)c3cc(Br)ccc3n2)c1 | 286 to 288
127 | COCCOc1ccc(Cl)cc1S(=O)(=O)Cl | 38 to 40
128 | CC(C)n1[nH]c(-c2ccc(F)cc2)cc1=O | 156 to 158
129 | OCCc1nc2ccccc2s1 | 40 to 44
130 | Cc1cc(C(=O)CCl)c(Cl)cc1F | 36 to 38
131 | Clc1noc(-c2ccoc2)n1 | 48 to 50
132 | Ic1ccccc1-c1nn[nH]n1 | 217 to 219
133 | Cc1cc(C(=O)CCl)c(C)n1CC(F)(F)F | 143 to 145
134 | O=[N+]([O-])c1ccc(-c2noc(C(F)F)n2)cc1 | 76 to 78
135 | N#Cc1ccnc(-n2cncn2)c1 | 149 to 151
136 | CCOC(=O)COc1ccc(C#N)cc1OC | 69 to 71
137 | ON=Cc1ccc(OCc2ccccc2)cc1 | 109 to 111
138 | Nc1ccccc1NC(=O)c1ccc2ccccc2n1 | 151 to 153
139 | Cc1c(Cl)ccc2ccc(N)nc12 | 134 to 136
140 | Nc1ccccc1CSc1ccc(C(F)(F)F)cn1 | 74 to 76
141 | Cc1cccc(C(CO)N2CCNCC2)c1 (stereo not drawn) | 81 to 83
142 | COc1cccc(NC(=O)CNc2ccccc2)c1 | 205 to 207
143 | Cc1ccc(CNCc2ccc(C)n2C)n1C | 61 to 63

Reference: a melting point compilation (Tetko et al.)
